Measurements as given in ChEMBL document CHEMBL1140333, “Structure-based design, synthesis, and biological evaluation of inhibitors of Mycobacterium tuberculosis type II dehydroquinase” (J Med Chem, 2005).

Molecular target: T1, 3-dehydroquinate dehydratase (Mycobacterium tuberculosis, UniProt P9WPX7)
T1 sequence (P9WPX7 whole entry): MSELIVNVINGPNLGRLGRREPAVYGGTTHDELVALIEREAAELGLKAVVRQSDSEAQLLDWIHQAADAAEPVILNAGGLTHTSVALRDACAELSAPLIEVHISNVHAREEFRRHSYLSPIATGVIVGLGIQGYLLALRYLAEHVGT
Experiment: Inhibition of Mycobacterium tuberculosis type II dehydroquinase at 25 degree C pH 8.2

With `O=C(O)[C@]1(O)C=C(c2cc(F)cc(F)c2)[C@@H](O)[C@H](O)C1` the Ki was 2.44 µM.

`O=C(O)[C@]1(O)C=C(c2ccsc2)[C@@H](O)[C@H](O)C1` showed a Ki of 0.59 µM.

`O=C(O)[C@]1(O)C=C(c2cccc([N+](=O)[O-])c2)[C@@H](O)[C@H](O)C1` was tested, and the Ki was 0.054 µM.

`O=C(O)[C@]1(O)C=C(c2cccc(O)c2)[C@@H](O)[C@H](O)C1` was tested, and the Ki was 95 µM.

Work on `O=C(O)[C@]1(O)C=C(c2cccc(C(F)(F)F)c2)[C@@H](O)[C@H](O)C1` yielded a Ki of 2.12 µM.

With `O=C(O)c1cccc(C2=C[C@@](O)(C(=O)O)C[C@@H](O)[C@@H]2O)c1` the Ki was 150 µM.

`O=C(O)[C@]1(O)C=C(c2ccccc2)[C@@H](O)[C@H](O)C1` gave a Ki of 1.5 µM.

`O=C(O)[C@]1(O)C=C(c2ccc(F)cc2)[C@@H](O)[C@H](O)C1` showed a Ki of 1.8 µM.

For `O=C(O)[C@]1(O)C=C(c2ccc(C(F)(F)F)cc2)[C@@H](O)[C@H](O)C1`, the Ki was 17 µM.

`O=C(O)[C@]1(O)C=C(c2cccc(F)c2)[C@@H](O)[C@H](O)C1` was tested, and the Ki was 1.5 µM.

`O=C(O)[C@]1(O)C/C(=N\O)[C@@H](O)[C@H](O)C1` was tested, and the Ki was 20 µM.

`O=C(O)[C@]1(O)C=C(F)[C@@H](O)[C@H](O)C1` was tested, and the Ki was 10 µM.

For `O=C(O)[C@]1(O)C=C(c2ccoc2)[C@@H](O)[C@H](O)C1`, the Ki was 0.83 µM.

For `O=C(O)[C@]1(O)C=C(c2cccnc2)[C@@H](O)[C@H](O)C1`, the Ki was 45 µM.
